Measured values from patent US20020137929A1, “1 - (3-heterocyclylphenyl) isothiourea, -isourea, -guanidine and -amidine herbicidal agents” (Intellectual Property Department, BASF Aktiengesellschaft, priority 1998, published 2002).

Experiments:
CASOB (Sicklepod) = test: Postemergence herbicidal evaluation; format: in vivo, Cassia obtusifolia; details: postemergence
Summary of the method: (§1)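 Seedlings grown about two weeks were sprayed at 40 psi with compound dispersed in 50/50 acetone/water plus 0.5% TWEEN 20, at about 0.0156 to 0.500 kg/ha. Plants were kept in the greenhouse and scored 4–5 weeks later on a 0–9 visual scale against untreated controls.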

GALAP (Galium) = test: Postemergence herbicidal evaluation; format: in vivo, Galium aparine; details: postemergence
Summary of the method: as §1

ZEAMX (Corn, Field) [1] = test: Postemergence herbicidal evaluation; format: in vivo, Zea mays; details: postemergence
Summary of the method: as §1

AMBEL (Ragweed, Common) = test: Preemergence herbicidal evaluation; format: in vivo, Ambrosia artemisifolia; details: preemergence, rated 4-5 weeks after treatment, 0-9 scale
Summary of the method: (§2)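 Scores use a 0–9 visual scale covering stand, vigor, malformation, size and chlorosis relative to controls, rated four to five weeks after treatment. Before emergence, soil-planted seeds were sprayed with compound in aqueous acetone at roughly 0.0156–0.500 kg/ha and held in the greenhouse.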

[2] = system: CHEAL (Lambsquarters, Common); test: Preemergence herbicidal evaluation; format: in vivo, Chenopodium album; details: preemergence, rated 4-5 weeks after treatment, 0-9 scale
Summary of the method: as §2

[3] = system: IPOHE (Morningglory, Ivyleaf); test: Preemergence herbicidal evaluation; format: in vivo, Ipomoea hederacea; details: preemergence, rated 4-5 weeks after treatment, 0-9 scale
Summary of the method: as §2

ORYSAT (Rice, Tebonnet) = test: Preemergence herbicidal evaluation; format: in vivo, Oryza sativa, (L.) Tebonnet; details: preemergence, rated 4-5 weeks after treatment, 0-9 scale
Summary of the method: as §2

[4] = system: TRZAWR (Wheat, Winter, cv Riband); test: Preemergence herbicidal evaluation; format: in vivo, Triticum aestivum; details: preemergence, rated 4-5 weeks after treatment, 0-9 scale
Summary of the method: as §2

ZEAMX (Corn, Field) [5] = test: Preemergence herbicidal evaluation; format: in vivo, Zea mays; details: preemergence, rated 4-5 weeks after treatment, 0-9 scale
Summary of the method: as §2

[6] = system: ECHORC (Watergrass (Calif.)); test: Preemergence weed control under flooded paddy conditions; format: in vivo, Echinochloa oryzoides; details: rated 3-4 weeks after treatment
Summary of the method: (§3)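 Visual injury scored 0-9 against control three to four weeks post-treatment, greenhouse-grown. Application: acetone/water (50/50) solutions dosed directly into flood water (1.5-3 cm over silt loam, planted top 0.5 cm), roughly 0.0313 to 0.500 kg/ha active ingredient.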

CYPIR (Rice Flatsedge) = test: as above; format: in vivo, Cyperus iria; details: rated 3-4 weeks after treatment
Summary of the method: as §3

CYPSE (Flatsedge) [7] = test: as above; format: in vivo, Cyperus serotinus; details: rated 3-4 weeks after treatment
Summary of the method: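 Ratings on a 0-9 visual scale cover stand, vigor, malformation, size, chlorosis and overall appearance relative to a control, taken three to four weeks post-treatment. Application was into flood water over freshly sown silt loam at roughly 0.0313 to 0.500 kg/ha.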

[8] = system: ECHORC (Watergrass (Calif.)); test: Postemergence weed control under flooded paddy conditions; format: in vivo, Echinochloa oryzoides; details: postemergence weeds, rated 3 to 4 weeks after treatment
Summary of the method: (§4)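 Herbicidal effect is judged by eye on a 0–9 scale versus control, 3–4 weeks after dosing. Dosing is into flood water kept 1.5–3 cm over the soil, at about 0.0313–0.500 kg/ha in aqueous/acetone 50/50 v/v, on 3–5 cm weeds and 1.5–2.5-leaf rice seedlings.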

CYPSE (Flatsedge) [9] = test: as above; format: in vivo, Cyperus serotinus; details: postemergence weeds, rated 3 to 4 weeks after treatment
Summary of the method: as §4

CCS(=O)(=O)NC(=O)CC1SC(=Nc2cc(-n3c(=O)cc(C(F)(F)F)n(C)c3=O)c(F)cc2Cl)N(C)C1=O (centres unmarked) [Compound 105, 2-{{2-Chloro-5-[3,6-dihydro-3-methyl-2,6-dioxo-4-(trifluoromethyl)-1(2H)-pyrimidinyl]-4-fluorophenyl}imino}-N-(ethylsulfonyl)-3-methyl-4-oxo-5-thiazolidineacetamide]
herbicidal rating CASOB (CASOB (Sicklepod); rate 0.0156 kg/ha): 0.0 | herbicidal rating CASOB (CASOB (Sicklepod); rate 0.0313 kg/ha): 0.0 | herbicidal rating CASOB (CASOB (Sicklepod); rate 0.0625 kg/ha): 0.0 | herbicidal rating CASOB (CASOB (Sicklepod); rate 0.1250 kg/ha): 1.0 | herbicidal rating GALAP (GALAP (Galium); rate 0.0156 kg/ha): 0.0 | herbicidal rating GALAP (GALAP (Galium); rate 0.0313 kg/ha): 0.0 | herbicidal rating GALAP (GALAP (Galium); rate 0.0625 kg/ha): 1.0 | herbicidal rating GALAP (GALAP (Galium); rate 0.1250 kg/ha): 2.0 | herbicidal rating ZEAMX (ZEAMX (Corn, Field) [1]; rate 0.0156 kg/ha): 3.5 | herbicidal rating ZEAMX (ZEAMX (Corn, Field) [1]; rate 0.0313 kg/ha): 5.0 | herbicidal rating ZEAMX (ZEAMX (Corn, Field) [1]; rate 0.0625 kg/ha): 6.0 | herbicidal rating ZEAMX (ZEAMX (Corn, Field) [1]; rate 0.1250 kg/ha): 7.0 | AMBEL rating (AMBEL (Ragweed, Common); 0.1250 kg/ha): 1.0 | AMBEL rating (AMBEL (Ragweed, Common); 0.2500 kg/ha): 3.0 | AMBEL rating (AMBEL (Ragweed, Common); 0.5000 kg/ha): 4.0 | CHEAL rating ([2]; 0.1250 kg/ha): 9.0 | CHEAL rating ([2]; 0.2500 kg/ha): 9.0 | CHEAL rating ([2]; 0.5000 kg/ha): 9.0 | IPOHE rating ([3]; 0.1250 kg/ha): 0.0 | IPOHE rating ([3]; 0.2500 kg/ha): 3.0 | IPOHE rating ([3]; 0.5000 kg/ha): 4.0 | ORYSAT rating (ORYSAT (Rice, Tebonnet); 0.1250 kg/ha): 0.0 | ORYSAT rating (ORYSAT (Rice, Tebonnet); 0.2500 kg/ha): 0.0 | ORYSAT rating (ORYSAT (Rice, Tebonnet); 0.5000 kg/ha): 0.0 | TRZAWR rating ([4]; 0.1250 kg/ha): 0.0 | TRZAWR rating ([4]; 0.2500 kg/ha): 0.0 | TRZAWR rating ([4]; 0.5000 kg/ha): 0.0 | ZEAMX rating (ZEAMX (Corn, Field) [5]; 0.1250 kg/ha): 0.0 | ZEAMX rating (ZEAMX (Corn, Field) [5]; 0.2500 kg/ha): 1.0 | ZEAMX rating (ZEAMX (Corn, Field) [5]; 0.5000 kg/ha): 2.0 | ECHORC herbicidal effect rating ([6]; 0.0313 kg/ha): 0.0 | ECHORC herbicidal effect rating ([6]; 0.0625 kg/ha): 3.0 | ECHORC herbicidal effect rating ([6]; 0.1250 kg/ha): 4.0 | ECHORC herbicidal effect rating ([6]; 0.2500 kg/ha): 5.0 | CYPIR herbicidal effect rating (CYPIR (Rice Flatsedge); 0.0313 kg/ha): 5.0 | CYPIR herbicidal effect rating (CYPIR (Rice Flatsedge); 0.0625 kg/ha): 7.0 | CYPIR herbicidal effect rating (CYPIR (Rice Flatsedge); 0.1250 kg/ha): 7.0 | CYPIR herbicidal effect rating (CYPIR (Rice Flatsedge); 0.2500 kg/ha): 9.0 | CYPSE herbicidal effect rating (CYPSE (Flatsedge) [7]; 0.0313 kg/ha): 2.0 | CYPSE herbicidal effect rating (CYPSE (Flatsedge) [7]; 0.0625 kg/ha): 5.0 | CYPSE herbicidal effect rating (CYPSE (Flatsedge) [7]; 0.1250 kg/ha): 7.0 | CYPSE herbicidal effect rating (CYPSE (Flatsedge) [7]; 0.2500 kg/ha): 9.0 | Herbicidal rating ECHORC ([8]; Rate 0.0313 kg/ha): 0.0 | Herbicidal rating ECHORC ([8]; Rate 0.0625 kg/ha): 3.0 | Herbicidal rating ECHORC ([8]; Rate 0.1250 kg/ha): 4.0 | Herbicidal rating ECHORC ([8]; Rate 0.2500 kg/ha): 5.0 | Herbicidal rating CYPSE (CYPSE (Flatsedge) [9]; Rate 0.0313 kg/ha): 2.0 | Herbicidal rating CYPSE (CYPSE (Flatsedge) [9]; Rate 0.0625 kg/ha): 5.0 | Herbicidal rating CYPSE (CYPSE (Flatsedge) [9]; Rate 0.1250 kg/ha): 7.0 | Herbicidal rating CYPSE (CYPSE (Flatsedge) [9]; Rate 0.2500 kg/ha): 9.0
